Numbered stars: 1 amine (or outer) side, 2 acyl side, 3 side chain; on linkers, the order of the positions; unused ones are H or OH. Bridge positions count the residues as written; N and C are the ends. Square brackets hold non-standard residues; d marks the D form. Peptide text beside a SMILES is read from it. * marks the point of attachment. ξ: configuration not given here. Phe(3-CF3) = N[C@@H](Cc1cccc(C(F)(F)F)c1)C(=O)O; Phe(4-COOH) = N[C@@H](Cc1ccc(C(=O)O)cc1)C(=O)O; Bip = N[C@@H](Cc1ccc(-c2ccccc2)cc1)C(=O)O; Phe(2-Br) = N[C@@H](Cc1ccccc1Br)C(=O)O; Phe(3-Me) = Cc1cccc(C[C@H](N)C(=O)O)c1; βAsp = O=C(O)[C@H](CC(=O)[*:2])N[*:1]; Gly(cPent) = N[C@H](C(=O)O)C1CCCC1; Val(3-OH) = CC(C)(O)[C@H](N)C(=O)O; 4Pal = N[C@@H](Cc1ccncc1)C(=O)O; 3Thi = N[C@@H](Cc1ccsc1)C(=O)O; Cha = N[C@@H](CC1CCCCC1)C(=O)O; Ile(3ξ) = CCC(C)[C@H](N)C(=O)O; dNMeNle = CCCC[C@@H](NC)C(=O)O; Thr(3ξ) = CC(O)[C@H](N)C(=O)O; ξIle = CC[C@H](C)C(N)C(=O)O; Carboxymethyl = O=C(O)C*; NMeA = CN[C@@H](C)C(=O)O; Orn = NCCC[C@H](N)C(=O)O; Pra = C#CC[C@H](N)C(=O)O; Dab = NCC[C@H](N)C(=O)O; Dap = NC[C@H](N)C(=O)O
These compounds were tested against T1, PE-labeled human PD-L1-Ig binding to Jurkat cell line over-expressing human PD-1 (Jurkat-PD-1) (Homo sapiens, UniProt Q15116) (assay: Jurkat-PD-1 Cell Binding High-Content Screening Assay (CBA): Method 1). Settings: Jurkat-hPD-1 cells, PE-labeled PD-L1-Ig 20 nM final; read-out: Jurkat HPDL1 PD1 IC50 (uM) (Method 1).
T1 construct: expressed in transfected cells; host or cells: Jurkat
T1 sequence (Q15116 25-288): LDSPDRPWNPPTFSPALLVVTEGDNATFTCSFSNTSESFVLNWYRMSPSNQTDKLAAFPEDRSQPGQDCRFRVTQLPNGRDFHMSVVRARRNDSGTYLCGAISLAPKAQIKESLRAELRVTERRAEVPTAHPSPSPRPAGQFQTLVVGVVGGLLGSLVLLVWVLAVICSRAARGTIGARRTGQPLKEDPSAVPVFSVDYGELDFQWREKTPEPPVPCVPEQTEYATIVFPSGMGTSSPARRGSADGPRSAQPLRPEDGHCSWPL

SMILES | IC50
CCCC[C@@H]1C(=O)N[C@@H](Cc2ccc(OCC(=O)O)cc2)C(=O)N[C@@H](CC(=O)O)C(=O)N[C@@H](Cc2cccc(C)c2)C(=O)N[C@@H](Cc2ccc(OCC(=O)O)cc2)C(=O)N[C@@H](Cc2ccc(-c3ccccc3)cc2)C(=O)N[C@@H](Cc2ccc(OCC(=O)O)cc2)C(=O)N(C)[C@@H](C)C(=O)N[C@H](CC(C)C)C(=O)N[C@@H](CCN)C(=O)N[C@@H](CC2CCCCC2)C(=O)N[C@@H](C(C)C)C(=O)N[C@@H](CO)C(=O)N[C@H](C(=O)N[C@@H](CCN)C(N)=O)CSCC(=O)N1C [Compound 1859] ({CH2CO}-[dNMeNle]Y(Carboxymethyl)D[Phe(3-Me)]Y(Carboxymethyl)[Bip]Y(Carboxymethyl)[NMeA][dL][Dab][Cha]VSC[Dab]-NH2; thioether N-14) | 0.05 µM
CC(C)C[C@@H]1NC(=O)[C@H](CCCCN)NC(=O)[C@@H](CC(C)C)NC(=O)[C@H](C)N(C)C(=O)[C@H](Cc2cnc[nH]2)NC(=O)[C@H](Cc2ccc(-c3ccccc3)cc2)NC(=O)[C@H](C(C)C)NC(=O)[C@H](Cc2c[nH]c3ccccc23)NC(=O)[C@H](CC(=O)O)NC(=O)[C@H](Cc2ccc(O)cc2)NC(=O)[C@H](CC(N)=O)NC(=O)CSC[C@@H](C(=O)N[C@@H](C)C(N)=O)NC(=O)[C@H](CO)NC(=O)[C@H](C(C)C)NC1=O [Compound 1482] ({CH2CO}-NYDWV[Bip]H[NMeA][dL]KLVSCA-NH2; thioether N-14) | 0.11 µM
CC(C)C[C@H]1NC(=O)[C@H](C)N(C)C(=O)[C@H](Cc2ccc(OCC(=O)O)cc2)NC(=O)[C@H](Cc2ccc(-c3ccccc3)cc2)NC(=O)[C@H](Cc2ccc(C(=O)O)cc2)NC(=O)[C@H](Cc2c[nH]c3ccccc23)NC(=O)[C@H](CC(=O)O)NC(=O)[C@H](Cc2ccc(OCC(=O)O)cc2)NC(=O)[C@H](Cc2ccsc2)NC(=O)CSC[C@@H](C(=O)N[C@@H](CCN)C(N)=O)NC(=O)[C@H](CO)NC(=O)[C@H](C(C)(C)O)NC(=O)[C@H](CC2CCCCC2)NC(=O)[C@H](CC(N)=O)NC1=O [Compound 2131] ({CH2CO}-[3Thi]Y(Carboxymethyl)DW[Phe(4-COOH)][Bip]Y(Carboxymethyl)[NMeA][dL]N[Cha][Val(3-OH)]SC[Dab]-NH2; thioether N-14) | 0.07 µM
CC(C)C[C@@H]1NC(=O)[C@H](CCN)NC(=O)[C@@H](CC(C)C)NC(=O)[C@H](C)N(C)C(=O)[C@H](C(C)C)NC(=O)[C@H](Cc2ccc(-c3ccccc3)cc2)NC(=O)[C@H](C(C)C)NC(=O)[C@H](Cc2c[nH]c3ccccc23)NC(=O)[C@H](CC(=O)O)NC(=O)[C@H](Cc2ccc(O)cc2)NC(=O)[C@H](CCN)NC(=O)CSC[C@@H](C(=O)N[C@@H](C)C(N)=O)NC(=O)[C@H]([C@@H](C)O)NC(=O)[C@H](C(C)C)NC1=O [Compound 1361] ({CH2CO}-[Dab]YDWV[Bip]V[NMeA][dL][Dab]LVTCA-NH2; thioether N-14) | 0.01 µM
C#CC[C@H](NC(=O)C[C@H](NC(=O)[C@@H]1CSCC(=O)N[C@@H](Cc2ccc(OCC(=O)O)cc2)C(=O)N[C@@H](Cc2ccncc2)C(=O)N[C@@H](CC(=O)O)C(=O)N[C@@H](Cc2c[nH]c3ccccc23)C(=O)N[C@@H](CC(C)C)C(=O)N[C@@H](Cc2ccc(-c3ccccc3)cc2)C(=O)N[C@@H](C(C)C)C(=O)N(C)[C@@H](C)C(=O)N[C@H](CC(C)C)C(=O)N[C@@H](CCN)C(=O)N[C@@H](CC2CCCCC2)C(=O)N[C@@H](C(C)C)C(=O)N[C@@H](CO)C(=O)N1)C(=O)O)C(N)=O [Compound 1645] ({CH2CO}-Y(Carboxymethyl)[4Pal]DWL[Bip]V[NMeA][dL][Dab][Cha]VSC[βAsp][Pra]-NH2; thioether N-14) | 0.01 µM
CC(C)C[C@@H]1NC(=O)[C@H](CCN)NC(=O)[C@@H](CC(C)C)NC(=O)[C@H](C)N(C)C(=O)[C@H](CCCN)NC(=O)[C@H](Cc2ccc(-c3ccccc3)cc2)NC(=O)[C@H](C(C)C)NC(=O)[C@H](Cc2c[nH]c3ccccc23)NC(=O)[C@H](CC(=O)O)NC(=O)[C@H](Cc2ccc(O)cc2)NC(=O)[C@H](CCC(N)=O)NC(=O)CSC[C@@H](C(=O)N[C@@H](C)C(N)=O)NC(=O)[C@H]([C@@H](C)O)NC(=O)[C@H](C(C)C)NC1=O [Compound 1363] ({CH2CO}-QYDWV[Bip][Orn][NMeA][dL][Dab]LVTCA-NH2; thioether N-14) | 0.11 µM
CCC(C)[C@@H]1NC(=O)[C@H](Cc2ccc(-c3ccccc3)cc2)NC(=O)[C@H](CC(C)C)NC(=O)[C@H](Cc2c[nH]c3ccccc23)NC(=O)[C@H](CC(=O)O)NC(=O)[C@H](Cc2ccc(OCC(=O)O)cc2)NC(=O)[C@H](C(C)O)NC(=O)CSC[C@@H](C(=O)N[C@@H](CC(N)=O)C(=O)O)NC(=O)[C@H](C2CCCC2)NC(=O)[C@H](C(C)C)NC(=O)[C@H](CC(C)C)NC(=O)[C@H](CCN)NC(=O)[C@@H](CC(C)C)NC(=O)[C@H](C)N(C)C1=O (stereo partly drawn) [Compound 2227] ({CH2CO}-[Thr(3ξ)]Y(Carboxymethyl)DWL[Bip][Ile(3ξ)][NMeA][dL][Dab]LV[Gly(cPent)]CN-OH; thioether N-14) | 0.81 µM
CC(C)C[C@@H]1NC(=O)[C@H](Cc2c[nH]c3ccccc23)NC(=O)[C@H](CC(=O)O)NC(=O)[C@H](Cc2ccc(OCC(=O)O)cc2)NC(=O)[C@H](Cc2ccncc2)NC(=O)CSC[C@@H](C(=O)N[C@@H](C)C(N)=O)NC(=O)[C@H](CO)NC(=O)[C@H](C(C)C)NC(=O)[C@H](CC(C)C)NC(=O)[C@H](CC(N)=O)NC(=O)[C@@H](C)NC(=O)[C@H](C)N(C)C(=O)[C@H](C(C)C)NC(=O)[C@H](Cc2ccc(-c3ccccc3)cc2)NC1=O [Compound 1563] ({CH2CO}-[4Pal]Y(Carboxymethyl)DWL[Bip]V[NMeA][dA]NLVSCA-NH2; thioether N-14) | 0.02 µM
CC[C@H](C)C1NC(=O)[C@H](Cc2ccc(-c3ccccc3)cc2)NC(=O)[C@H](C(C)C)NC(=O)[C@H](Cc2c[nH]c3ccccc23)NC(=O)[C@H](CC(=O)O)NC(=O)[C@H](Cc2ccc(C(=O)O)cc2)NC(=O)[C@H](CC(N)=O)NC(=O)CSC[C@@H](C(=O)N[C@@H](C)C(N)=O)NC(=O)[C@H]([C@@H](C)O)NC(=O)[C@H](C(C)C)NC(=O)[C@H](CC(C)C)NC(=O)[C@H](CCN)NC(=O)[C@@H](CC(C)C)NC(=O)[C@H](C)N(C)C1=O (stereo partly drawn) [Compound 1395] ({CH2CO}-N[Phe(4-COOH)]DWV[Bip][ξIle][NMeA][dL][Dab]LVTCA-NH2; thioether N-14) | 0.02 µM
CC(C)C[C@@H]1NC(=O)[C@H](Cc2c[nH]c3ccccc23)NC(=O)[C@H](CC(=O)O)NC(=O)[C@H](Cc2ccccc2Br)NC(=O)[C@H](Cc2ccccc2)NC(=O)CSC[C@@H](C(=O)N[C@@H](C)C(N)=O)NC(=O)[C@H](CO)NC(=O)[C@H](C(C)C)NC(=O)[C@H](CC(C)C)NC(=O)[C@H](CC(N)=O)NC(=O)[C@@H](C)NC(=O)[C@H](C)N(C)C(=O)[C@H](C(C)C)NC(=O)[C@H](Cc2ccc(-c3ccccc3)cc2)NC1=O [Compound 1823] ({CH2CO}-F[Phe(2-Br)]DWL[Bip]V[NMeA][dA]NLVSCA-NH2; thioether N-14) | 0.6 µM
CC(C)C[C@@H]1NC(=O)[C@H](CCN)NC(=O)[C@@H](CC(C)C)NC(=O)[C@H](C)N(C)C(=O)[C@H](Cc2cnc[nH]2)NC(=O)[C@H](Cc2ccc(-c3ccccc3)cc2)NC(=O)[C@H](C(C)C)NC(=O)[C@H](Cc2c[nH]c3ccccc23)NC(=O)[C@H](CC(=O)O)NC(=O)[C@H](Cc2cccc(C(F)(F)F)c2)NC(=O)[C@H](CN)NC(=O)CSC[C@@H](C(=O)N[C@@H](C)C(N)=O)NC(=O)[C@H]([C@@H](C)O)NC(=O)[C@H](C(C)C)NC1=O [Compound 1434] ({CH2CO}-[Dap][Phe(3-CF3)]DWV[Bip]H[NMeA][dL][Dab]LVTCA-NH2; thioether N-14) | 0.05 µM

— patent publication US20240409585A1, “MACROCYCLIC IMMUNOMODULATORS” (priority 2021, published 2024)
